In ChEMBL document CHEMBL5131463, “Target-Based Virtual Screening and LC/MS-Guided Isolation Procedure for Identifying Phloroglucinol-Terpenoid Inhibitors of SARS-CoV-2” (J Nat Prod, 2022):

Tests used:
SARS-CoV-2 [1] = assay: (§1) Antiviral activity against SARS-Cov-2 infected in african green monkey Vero E6 cells assessed as inhibition of viral replication at 10 uM pretreated with compound for 1 hr followed by viral infection for 2 hrs measured after 24 hrs post infection by qRt-PCR analysis relative to control; type: functional; conditions: Severe acute respiratory syndrome coronavirus 2, Vero C1008, time 27 hrs
SARS-CoV-2 [2] = assay: as §1, with “post infection in presence of wallichins D by qRt-PCR” for “post infection by qRt-PCR”; type: functional; conditions: Severe acute respiratory syndrome coronavirus 2, Vero C1008, time 27 hrs
Spike glycoprotein [3] = molecular target: T1, Spike glycoprotein (Severe acute respiratory syndrome coronavirus 2, UniProt P0DTC2); assay: Binding affinity to SARS-CoV-2 Spike glycoprotein receptor-binding domain at 1.875 to 50 uM in presence of wallichins D by SPR assay
SARS-CoV-2 [4] = assay: Antiviral activity against SARS-Cov-2 infected in african green monkey Vero E6 cells assessed as inhibition of viral replication pretreated with compound for 1 hr followed by viral infection for 2 hrs measured after 24 hrs post infection in presence of wallichins D by qRt-PCR analysis; type: functional, organism-based; conditions: Severe acute respiratory syndrome coronavirus 2, Vero C1008
[5] = Cytotoxicity against African green monkey Vero E6 cells by CCK-8 assay; type: toxicity, cell-based, Vero C1008; conditions: chlorocebus sabaeus
[6] = molecular target: T2, Replicase polyprotein 1ab (Severe acute respiratory syndrome coronavirus 2, UniProt P0DTD1); assay: Inhibition of SARS-CoV-2 3CL protease using MCA-AVLQSGFR-Lys(Dnp)-Lys-NH2 as flurogenic substrate pre-incubated with compound for 10 mins followed by substrate addition measured after 10 mins in presence of wallichins D by FRET assay
Spike glycoprotein [7] = molecular target: T1, Spike glycoprotein; assay: Binding affinity to SARS-CoV-2 Spike glycoprotein receptor-binding domain at 1.875 to 50 uM by SPR assay
SARS-CoV-2 [8] = assay: Antiviral activity against SARS-Cov-2 infected in human Calu-3 cells assessed as inhibition of viral replication pretreated with compound for 1 hr followed by viral infection for 2 hrs measured after 24 hrs post infection in presence of wallichins D by qRt-PCR analysis; type: functional, organism-based; conditions: Severe acute respiratory syndrome coronavirus 2, Calu-3
[9] = Selectivity index, ratio for CC50 of African green monkey Vero E6 cells to EC50 for SARS-Cov-2 infected in african monkey Vero E6 cells; type: toxicity, Vero C1008; conditions: read-out: Selectivity Index
SARS-CoV-2 [10] = assay: Antiviral activity against SARS-Cov-2 infected in african green monkey Vero E6 cells assessed as inhibition of viral replication pretreated with compound for 1 hr followed by viral infection for 2 hrs measured after 24 hrs post infection by qRt-PCR analysis; type: functional, organism-based; conditions: Severe acute respiratory syndrome coronavirus 2, Vero C1008
[11] = molecular target: T2, Replicase polyprotein 1ab; assay: Inhibition of SARS-CoV-2 3CL protease using MCA-AVLQSGFR-Lys(Dnp)-Lys-NH2 as flurogenic substrate pre-incubated with compound for 10 mins followed by substrate addition measured after 10 mins by FRET assay
[12] = Cytotoxicity against human Calu-3 cells in presence of wallichins D by CCK-8 assay; type: toxicity, cell-based
[13] = Selectivity index, ratio of CC50 for African green monkey Vero cells in presence of wallichins D to EC50 for SARS-Cov-2 infected in african green monkey Vero E6 cells assessed as inhibition of viral replication in presence of wallichins D; type: toxicity, Vero C1008; conditions: read-out: Selectivity Index
[14] = Cytotoxicity against human Calu-3 cells by CCK-8 assay; type: toxicity, cell-based
[15] = molecular target: T2, Replicase polyprotein 1ab; assay: Binding affinity to SARS-CoV-2 3CL protease at 1.875 to 50 uM by SPR assay
SARS-CoV-2 [16] = assay: Antiviral activity against SARS CoV-2 VSV-delG pseudotype infected in african green monkey Vero E6 at 100 uM measured after 15 hrs post infection relative to control; type: functional; conditions: Severe acute respiratory syndrome coronavirus 2, Vero C1008
[17] = Cytotoxicity against African green monkey Vero E6 cells in presence of wallichins D by CCK-8 assay; type: toxicity, cell-based, Vero C1008; conditions: chlorocebus sabaeus
SARS-CoV-2 [18] = assay: Antiviral activity against SARS-Cov-2 infected in human Calu-3 cells assessed as inhibition of viral replication pretreated with compound for 1 hr followed by viral infection for 2 hrs measured after 24 hrs post infection by qRt-PCR analysis; type: functional, organism-based; conditions: Severe acute respiratory syndrome coronavirus 2, Calu-3
[19] = molecular target: T2, Replicase polyprotein 1ab; assay: Binding affinity to SARS-CoV-2 3CL protease at 1.875 to 50 uM in presence of wallichins D by SPR assay
[20] = Cytotoxicity against human Calu-3 cells in presence of wallichins C by CCK-8 assay; type: toxicity, cell-based
[21] = Cytotoxicity against African green monkey Vero E6 cells in presence of wallichins C by CCK-8 assay; type: toxicity, cell-based, Vero C1008; conditions: chlorocebus sabaeus
[22] = Selectivity index, ratio of CC50 for African green monkey Vero cells in presence of […] to EC50 for SARS-Cov-2 infected in african green monkey Vero E6 cells assessed as inhibition of viral replication in presence of wallichins C; type: toxicity, Vero C1008; conditions: read-out: Selectivity Index
[23] = molecular target: T2, Replicase polyprotein 1ab; assay: Binding affinity to SARS-CoV-2 3CL protease at 1.875 to 50 uM in presence of wallichins C by SPR assay
SARS-CoV-2 [24] = assay: Antiviral activity against SARS-Cov-2 infected in african green monkey Vero E6 cells assessed as inhibition of viral replication pretreated with compound for 1 hr followed by viral infection for 2 hrs measured after 24 hrs post infection in presence of wallichins C by qRt-PCR analysis; type: functional, organism-based; conditions: Severe acute respiratory syndrome coronavirus 2, Vero C1008
Spike glycoprotein [25] = molecular target: T1, Spike glycoprotein; assay: Binding affinity to SARS-CoV-2 Spike glycoprotein receptor-binding domain at 1.875 to 50 uM in presence of wallichins C by SPR assay
SARS-CoV-2 [26] = assay: Antiviral activity against SARS-Cov-2 infected in human Calu-3 cells assessed as inhibition of viral replication pretreated with compound for 1 hr followed by viral infection for 2 hrs measured after 24 hrs post infection in presence of wallichins C by qRt-PCR analysis; type: functional, organism-based; conditions: Severe acute respiratory syndrome coronavirus 2, Calu-3
SARS-CoV-2 [27] = assay: as §1, with “post infection in presence of wallichins C by qRt-PCR” for “post infection by qRt-PCR”; type: functional; conditions: Severe acute respiratory syndrome coronavirus 2, Vero C1008, time 27 hrs
[28] = molecular target: T2, Replicase polyprotein 1ab; assay: Inhibition of SARS-CoV-2 3CL protease using MCA-AVLQSGFR-Lys(Dnp)-Lys-NH2 as flurogenic substrate pre-incubated with compound for 10 mins followed by substrate addition measured after 10 mins in presence of wallichins C by FRET assay

C=C1CC[C@H]2[C@@](C)(CCC[C@]2(C)C(=O)O)[C@@H]1C/C=C(\C)[C@H]1CCC2=C(O1)C(C)(C)C(O)=C(C(C)=O)C2=O
inhibition at 10 µM (SARS-CoV-2 [1]): 51.7%

C=C1CC[C@H]2[C@@](C)(CCC[C@]2(C)C(=O)O)[C@@H]1C/C=C(\C)[C@@H]1CCc2c(O)c(CC3C(=O)C(C(C)=O)=C(O)C(C)(C)C3O)c(O)c(C(=O)CCC)c2O1 (some centres not stated)
inhibition at 10 µM (SARS-CoV-2 [2]): 87.7% | Kd (Spike glycoprotein [3]): 64.7 µM | EC50 (SARS-CoV-2 [4]): 6.8 µM | CC50 [5]: > 140 µM | IC50 [6]: 5.6 µM | Kd (Spike glycoprotein [7]): 91.7 µM | EC50 (SARS-CoV-2 [8]): 24.8 µM | selectivity ratio [9]: > 35 | EC50 (SARS-CoV-2 [10]): 4.5 µM | IC50 [11]: 7.5 µM | CC50 [12]: 72.4 µM | selectivity ratio [13]: > 27 | CC50 [14]: 98.6 µM | Kd [15]: 16.6 µM | inhibition in vivo at 100 µM (SARS-CoV-2 [16]): < 50% | CC50 [17]: > 140 µM | EC50 (SARS-CoV-2 [18]): 20.2 µM | Kd [19]: 12 µM

C=C1CC[C@H]2[C@@](C)(CCC[C@]2(C)C(=O)O)[C@@H]1C/C=C(\C)[C@H]1CCc2c(O)c(CC3C(=O)C(C(C)=O)=C(O)C(C)(C)C3O)c(O)c(C(=O)CCC)c2O1 (some centres not stated)
CC50 [5]: > 140 µM | Kd (Spike glycoprotein [7]): 67.9 µM | CC50 [20]: 72.4 µM | selectivity ratio [9]: > 11 | CC50 [21]: > 140 µM | selectivity ratio [22]: > 27 | Kd [23]: 12 µM | EC50 (SARS-CoV-2 [10]): 12.1 µM | EC50 (SARS-CoV-2 [24]): 6.8 µM | IC50 [11]: 8.1 µM | Kd (Spike glycoprotein [25]): 64.7 µM | CC50 [14]: 64.3 µM | EC50 (SARS-CoV-2 [26]): 24.8 µM | Kd [15]: 14.3 µM | inhibition at 10 µM (SARS-CoV-2 [27]): 87.7% | inhibition in vivo at 100 µM (SARS-CoV-2 [16]): < 50% | EC50 (SARS-CoV-2 [18]): 30 µM | IC50 [28]: 5.6 µM
